The source made the active and inactive calls. The calls are words filed in the database; no cut-off is given here. Residues, ends and D or L forms follow the SMILES beside them. *: point of attachment. Cbz = O=C(OCc1ccccc1)*; CH2F = FC*
Legend:
MDA-MB-231 [1] = assay: cells; details: Homo sapiens, MDA-MB-231, 72 h
Description: Antiproliferative activity against human MDA-MB-231 cells assessed as inhibition of cell proliferation incubated for 72 hrs by MTT assay

BT-549 [2] = assay: cells; details: Homo sapiens, BT-549, 72 h
Description: Antiproliferative activity against human BT-549 cells assessed as inhibition of cell proliferation incubated for 72 hrs by MTT assay

[3] = Cytotoxicity against human MCF-10A cells assessed as inhibition of cell proliferation incubated for 72 hrs by MTT assay; type: toxicity, cell-based
[4] = Selectivity index, ratio of IC50 for antiproliferative activity against human MCF-10A cells assessed as inhibition of cell proliferation to IC50 for antiproliferative activity against human MDA-MB-231 cells assessed as inhibition of cell proliferation; type: toxicity, cell-based; details: MCF-10A cells and MDA-MB-231 cells, read-out: Ratio IC50
MDA-MB-231 [5] = assay: Downregulation of NRF2 expression in human MDA-MB-231 cells at 5 uM; type: functional, cell-based
MDA-MB-231 [6] = assay: Downregulation of HO-1 expression in human MDA-MB-231 cells at 5 uM; type: functional, cell-based
MDA-MB-231 [7] = assay: Induction of apoptosis in human MDA-MB-231 cells assessed as viable cells at 5 uM incubated for 48 hrs by Annexin V/PI staining based flow cytometry analysis (reference value: 97.85%); type: functional; details: read-out: Activity
MDA-MB-231 [8] = assay: Induction of apoptosis in human MDA-MB-231 cells assessed as early apoptotic cells at 5 uM incubated for 48 hrs by Annexin V/PI staining based flow cytometry analysis (reference value: 0.80%); type: functional
MDA-MB-231 [9] = assay: Induction of apoptosis in human MDA-MB-231 cells assessed as late apoptotic cells at 5 uM incubated for 48 hrs by Annexin V/PI staining based flow cytometry analysis (reference value: 0.14%); type: functional
MDA-MB-231 [10] = assay: Induction of apoptosis in human MDA-MB-231 cells assessed as necrotic cells at 5 uM incubated for 48 hrs by Annexin V/PI staining based flow cytometry analysis (reference value: 0.03%); type: functional
MDA-MB-231 [11] = assay: Induction of cell cycle arrest in human MDA-MB-231 cells assessed as accumulation of cells at G0/G1 phase at 5 uM incubated for 48 hrs by propidium iodide staining flow cytometric analysis (reference value: 64.56 %); type: functional
MDA-MB-231 [12] = assay: Induction of cell cycle arrest in human MDA-MB-231 cells assessed as accumulation of cells at G2/M phase at 5 uM incubated for 48 hrs by propidium iodide staining flow cytometric analysis (reference value: 8.69%); type: functional
MDA-MB-231 [13] = assay: Induction of cell cycle arrest in human MDA-MB-231 cells assessed as accumulation of cells at S phase at 5 uM incubated for 48 hrs by propidium iodide staining flow cytometric analysis (reference value: 26.75%); type: functional
MDA-MB-231 [14] = assay: Induction of ferroptosis in human MDA-MB-231 cells assessed as cell death in presence of Z-VAD-FMK; type: functional, cell-based
BT-549 [15] = assay: Induction of ferroptosis in human BT-549 cells assessed as cell death in presence of Z-VAD-FMK; type: functional, cell-based
MDA-MB-231 [16] = assay: Induction of apoptosis in human MDA-MB-231 cells; type: functional, cell-based
MDA-MB-231 [17] = assay: Induction of ferroptosis in human MDA-MB-231 cells assessed as cell death in presence of ferrostatin-1; type: functional, cell-based
BT-549 [18] = assay: Induction of ferroptosis in human BT-549 cells assessed as cell death in presence of ferrostatin-1; type: functional, cell-based
[19] = biological target: T1, Phospholipid hydroperoxide glutathione peroxidase GPX4 (Homo sapiens) (UniProt P36969); assay: Inhibition of GPX4 (unknown origin) upto 3 uM incubated for 60 mins in presence of NADPH by absorbance based analysis
T1 sequence (whole entry): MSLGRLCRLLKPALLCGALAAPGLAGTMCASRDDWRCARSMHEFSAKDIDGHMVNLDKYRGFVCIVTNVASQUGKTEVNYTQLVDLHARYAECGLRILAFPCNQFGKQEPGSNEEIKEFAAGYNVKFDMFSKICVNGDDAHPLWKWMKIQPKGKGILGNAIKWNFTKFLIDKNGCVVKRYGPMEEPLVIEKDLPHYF

MDA-MB-231 [20] = assay: Antiproliferative activity against human MDA-MB-231 cells assessed as reduction in cell proliferation incubated for 72 hrs by MTT assay; type: functional, cell-based

Compound	IC50 (MDA-MB-231 [1]) [µM]	IC50 (BT-549 [2]) [nM]	other results
Cc1sc2c(c1C)C(c1ccc(Cl)cc1)=N[C@@H](CC(=O)NCCCN1CCN(C(=O)CCl)CC1)c1nnc(C)n1-2	2.26	2460	–
Cc1sc2c(c1C)C(c1ccc(Cl)cc1)=N[C@@H](CC(=O)Nc1ccc(N3CCN(C(=O)CCl)CC3)cc1)c1nnc(C)n1-2	5.31	7530	–
Cc1sc2c(c1C)C(c1ccc(Cl)cc1)=N[C@@H](CC(=O)NCC1CCN(C(=O)CCl)CC1)c1nnc(C)n1-2	1	720	IC50 at 72 h [3]: 1470 nM; selectivity ratio [4]: 1.47
Cc1sc2c(c1C)C(c1ccc(Cl)cc1)=N[C@@H](CC(=O)N1CCN(C(=O)CCl)CC1)c1nnc(C)n1-2	0.74	720	IC50 at 72 h [3]: 1150 nM; selectivity ratio [4]: 1.55
Cc1sc2c(c1C)C(c1ccc(Cl)cc1)=N[C@@H](CC(=O)NCCOCCOCCNC(=O)CCl)c1nnc(C)n1-2	3.03	1720	–
Cc1sc2c(c1C)C(c1ccc(Cl)cc1)=N[C@@H](CC(=O)NCc1ccc(NC(=O)CCl)cc1)c1nnc(C)n1-2	1.5	1000	–
Cc1sc2c(c1C)C(c1ccc(Cl)cc1)=N[C@@H](CC(=O)OC(C)(C)C)c1nnc(C)n1-2	25.9	20100	IC50 at 72 h [3]: 46400 nM; selectivity ratio [4]: 1.79; Activity (MDA-MB-231 [5]): Active; Activity (MDA-MB-231 [6]): Active; viability at 5 µM (MDA-MB-231 [7]): 66.4%; Activity (MDA-MB-231 [8]): 16.44%; Activity (MDA-MB-231 [9]): 16.28%; Activity (MDA-MB-231 [10]): 0.66%; Activity (MDA-MB-231 [11]): 50.48%; Activity (MDA-MB-231 [12]): 18.29%; Activity (MDA-MB-231 [13]): 31.23%
Cc1sc2c(c1C)C(c1ccc(Cl)cc1)=N[C@@H](CC(=O)NCCCCCCNC(=O)CCl)c1nnc(C)n1-2	5.25	5390	–
Cc1sc2c(c1C)C(c1ccc(Cl)cc1)=N[C@@H](CC(=O)NCc1ccc(CNC(=O)CCl)cc1)c1nnc(C)n1-2	1.37	950	–
Cc1sc2c(c1C)C(c1ccc(Cl)cc1)=N[C@@H](CC(=O)NCCOCCNC(=O)CCl)c1nnc(C)n1-2	3.88	3400	–
Cc1sc2c(c1C)C(c1ccc(Cl)cc1)=N[C@@H](CC(=O)NCCCCCNC(=O)CCl)c1nnc(C)n1-2	5.57	2620	–
Cc1sc2c(c1C)C(c1ccc(Cl)cc1)=N[C@@H](CC(=O)Nc1ccc(CNC(=O)CCl)cc1)c1nnc(C)n1-2	1.46	1070	–
Cc1sc2c(c1C)C(c1ccc(Cl)cc1)=N[C@@H](CC(=O)NCCCCNC(=O)CCl)c1nnc(C)n1-2	4.64	5280	–
CCOC(=O)c1ccc(NC2CCCCC2)c(N)c1	–	–	Activity (MDA-MB-231 [14]): Active; Activity (BT-549 [15]): Active
Cc1sc2c(c1C)C(c1ccc(Cl)cc1)=N[C@@H](CC(=O)NCCNC(=O)CCl)c1nnc(C)n1-2	3.15	2400	–
Cc1sc2c(c1C)C(c1ccc(Cl)cc1)=N[C@@H](CC(=O)NCCc1ccc(NC(=O)CCl)cc1)c1nnc(C)n1-2	0.69	850	IC50 at 72 h [3]: 1540 nM; selectivity ratio [4]: 2.26
CC(C)[C@H](NC(=O)OCc1ccccc1)C(=O)N[C@@H](C)C(=O)N[C@@H](CC(=O)O)C(=O)CF (Cbz-Val-Ala-Asp-CH2F)	–	–	Activity (MDA-MB-231 [16]): inactive; Activity (MDA-MB-231 [17]): Active; Activity (BT-549 [18]): Active
Cc1sc2c(c1C)C(c1ccc(Cl)cc1)=N[C@@H](CC(=O)NCCCNC(=O)CCl)c1nnc(C)n1-2	4.57	2270	–
Cc1sc2c(c1C)C(c1ccc(Cl)cc1)=N[C@@H](CC(=O)NCCN1CCN(C(=O)CCl)CC1)c1nnc(C)n1-2	5.94	6990	–
Cc1sc2c(c1C)C(c1ccc(Cl)cc1)=N[C@@H](CC(=O)Nc1ccc(CCNC(=O)CCl)cc1)c1nnc(C)n1-2	13.7	17100	–
Cc1sc2c(c1C)C(c1ccc(Cl)cc1)=N[C@@H](CC(=O)Nc1ccc(NC(=O)CCl)cc1)c1nnc(C)n1-2	1.4	970	–
CC(=O)N1CCC(NC(=O)C[C@@H]2N=C(c3ccc(Cl)cc3)c3c(sc(C)c3C)-n3c(C)nnc32)CC1	–	–	inhibition [19]: inactive; Activity (MDA-MB-231 [20]): Active
Cc1sc2c(c1C)C(c1ccc(Cl)cc1)=N[C@@H](CC(=O)NCCC1CCN(C(=O)CCl)CC1)c1nnc(C)n1-2	3.49	3190	–
